Measurements from patent US20230399378A1, “PEPTIDE-BASED DELIVERY OF AGENTS” (THE FLOREY INSTITUTE OF NEUROSCIENCE AND MENTAL HEALTH, priority 2020, published 2023).
Square brackets hold non-standard residues; d marks the D form. Side chains are listed from the residue outwards. Peptide text beside a SMILES is read from it. PMO = not defined here; AEEA = NCCOCCOCC(=O)O; Ahx = NCCCCCC(=O)O; Mpa = O=C(O)CCS

Experiments:
[1] = Serum stability in 50% human serum at 37 °C (RP-HPLC, one-phase decay half-life); details: for half-life at 500 µM: human, serum (50% human serum)
Protocol: Serum stability analysis was conducted for each peptide (7×50 nmol) shown in Table 3 in 50% human serum (100 μL) at 37° C. At the end of each time point (0, 10, 30, 60, 120, 240, and 480 min), 1 M guanidine hydrochloride solution (200 μL) and ice-cold acetonitrile (600 μL) were added, and the serum-peptide solution was centrifuged at 14000 g for 10 min. The supernatant was lyophilised and redissolved in water (200 μL). All samples were analysed by RP-HPLC in the presence of phenol (50 nmol) as an internal standard, using water and acetonitrile containing 0.1% TFA, with a gradient of 10-80% acetonitrile over 30 min, and a flow rate of 1.5 mL/min. The percentage of peptide remaining was measured based on the area under curve. The percentage of peptide remaining versus time data was fitted to a non-linear one-phase exponential decay model in GraphPad Prism 9.2.0 to determine the half-life for each peptide.

SMN2 = SMN2 splice-switching for exon 7 inclusion by RT-qPCR in SMA Type I patient-derived fibroblasts (Example 2); assay type: cell-based, human; details: for exon-7 inclusion activity, change in words: 0.5 μM and 1 μM, versus comparator; for level of exon-7 inclusion activity (full length SMN2/HPRT1, normalised to untreated control set to 1): treated 4 hrs, then 20 hrs growth medium, mean±SEM
Text: FIG. 3. (A) SMN2 pre-mRNA exon-7 skipping and production of 80-90% SMN2Δ7 mRNA transcripts. Peptide-PMO binding to Intron-splicing silencer (ISS-N1) and restoration of SMN2 splicing and production of full-length SMN2 mRNA transcripts. The positions of forward and reverse primers highlighted on full-length mRNA. (B)-(C) Effect of administration of peptides linked to PMO for SMN2 exon 7 inclusion, measured as change in the level of full length SMN2/HPRT1 in SMA patient-derived fibroblasts, each at two concentrations, 0.5 μM and 1 μM (or 1 μM and 5 μM in the case of PMO alone). UT, untreated. (B) For PMO constructs, from left to right: PMO; ApoE(141-150)-PMO; ApoE(133-150)-PMO. (C) For PMO constructs, from left to right: PMO; HA2-PMO; GALA-PMO; NLS-PMO; ApoE(141-150)-PMO; HA2-ApoE(141-150)-PMO; GALA-ApoE(141-150)-PMO; NLS-ApoE(141-150)-PMO; H4-ApoE(141-150)-PMO; A4-ApoE(141-150)-PMO. *P<0.05,**P<0.001, ***P<0.0001 cf. Untreated (control) and PMO (1 and 5 μM); #P<0.001 cf. GALA-/NLS-/H4-ApoE(141-150)-PMO (1 μM), ^<0.001 cf. ApoE(133-150)-PMO (0.5 and 1 μM), ^OP<0.001 cf. ApoE(141-150)-PMO (1 μM), ^&P<0.05 cf.
The inventors then evaluated cellular uptake and activity of these peptide-PMO conjugates in SMA Type I patient-derived fibroblasts with two copies of SMN2. Efficiency of uptake was assessed by RT-qPCR using SMN2 splice-switching for exon 7 inclusion (see FIG. 3A).
SMA Type I patient-derived fibroblasts (SMN2^+/+, GM03813, Coriell Cell Repositories) were maintained in Dulbecco's Modified Eagle's Medium (DMEM), supplemented with 10% foetal bovine serum (FBS), 1% Penicillin/Streptomycin and 1% L-glutamine (L-glu) at 37° C. Cells were plated in 6-well plates at a density of 3×10^5/well in 6 well plates one day prior to treatment with PMO and peptide-PMO conjugates. Cells used were from passage 8-22. PMO and the peptide-PMO conjugates were dissolved in nuclease-free water and diluted to appropriate concentrations in Opti-MEM reduced serum medium. Cells were treated for 4 hrs at 37° C. The transfection medium was then removed and replaced with growth medium in which the cells were incubated for 20 hrs.
Cells were washed with PBS and total cellular RNA was extracted using Trizol (TRI Reagent®, Sigma) according to the manufacturer's instructions (Life Technologies). 400 ng purified RNA was reverse transcribed into cDNA using BioRad iScript Reverse Transcription Supermix kit according to the manufacturer's instructions. The reverse transcription was performed using the Veriti Thermal Cycler (ThermoFisher Scientific) with the thermal cycling conditions: 25° C. for 5 min, 46° C. for 20 min, 95° C. for 1 min followed by a 4° C. holding period.
Quantitative PCR (20 ng cDNA/well) was carried out in a 96-well plate in triplicate using SsoAdvanced Universal SYBR Green Supermix on a Biorad CFX96 Touch™ Real-Time PCR detection system. The amplification was carried out using full-length SMN2-specific primers: Ex-6 Forward 5′-[…]-3′ (SEQ ID NO:10) and Ex7-8 reverse 5′[…]-3′ (SEQ ID NO:11). Human HPRT1 was used as the internal reference gene with forward primer sequence 5′-[…]-3′ (SEQ ID NO:12) and reverse primer sequence 5′-[…]-3′ (SEQ ID NO:13). The ΔΔCt method was used to correct the Ct values against the HPRT1 Ct values. The values obtained were normalised to the untreated control values which were set to 1. Statistical analysis was carried out using one-way ANOVA with post-hoc Bonferroni for multiple groups comparison (GraphPad Prism V.8, 2018). All data are expressed as mean±SEM from at least three independent experiments with p<0.05 considered significant.

Compound	half-life at 500 µM [1]	exon-7 inclusion activity, change in words (SMN2)	further results
CC[C@@H](C)[C@@H](NC(=O)[C@@H](C)NC(=O)[C@@H](Cc1c[nH]cn1)NC(=O)[C@@H](Cc1ccccc1)NC(=O)[C@H](NC(=O)[C@@H](Cc1c[nH]cn1)NC(=O)CNC(=O)CNC(=O)[C@@H](Cc1c[nH]c2ccccc12)NC(=O)[C@@H](Cc1c[nH]cn1)NC(=O)COCCOCCNC(=O)CCS)[C@H](C)CC)C(=O)N[C@H](C)C(=O)N[C@H](Cc1c[nH]cn1)C(=O)N[C@H](Cc1ccccc1)C(=O)N[C@H](CC(C)C)C(=O)NCC(=O)NCCOCCOCC(=O)N[C@@H](CCCCN)C(=O)NCCOCCOCC(=O)N[C@H](CCCNC(=N)N)C(=O)N[C@H](CC(C)C)C(=O)N[C@H](CC(C)C)C(=O)N[C@H](CCCNC(=N)N)C(=O)N[C@H](CCCCN)C(=O)N[C@H](CCCNC(=N)N)C(=O)N[C@H](CC(C)C)C(=O)N[C@H](CCCCN)C(=O)N[C@H](CCCNC(=N)N)C(=O)N[C@H](CC(C)C)C(=O)O [RI TPA-HA2-ApoE(141-150), TPA-mPEG-hwgghifhaiahflg-mPEG-K-mPEG-rllrkrlkrl] ([Mpa][AEEA][dH][dW]GG[dH][dI][dF][dH][dA][dI][dA][dH][dF][dL]G[AEEA]K[AEEA][dR][dL][dL][dR][dK][dR][dL][dK][dR][dL]-OH)	24 min		
Ac-AAAA-X-LRKLRKRLLR-X-C-PMO [A4-ApoE(141-150)-PMO]		significant decrease	
CC[C@@H](C)[C@@H](NC(=O)[C@@H](C)NC(=O)[C@@H](Cc1c[nH]cn1)NC(=O)[C@@H](Cc1ccccc1)NC(=O)[C@H](NC(=O)[C@@H](Cc1c[nH]cn1)NC(=O)CNC(=O)CNC(=O)[C@@H](Cc1c[nH]c2ccccc12)NC(=O)[C@@H](Cc1c[nH]cn1)NC(=O)COCCOCCNC(=O)CCS)[C@H](C)CC)C(=O)N[C@H](C)C(=O)N[C@H](Cc1c[nH]cn1)C(=O)N[C@H](Cc1ccccc1)C(=O)N[C@H](CC(C)C)C(=O)NCC(=O)NCCOCCOCC(=O)N[C@@H](CCCCN)C(=O)NCCOCCOCC(=O)N[C@H](CCCNC(=N)N)C(=O)N[C@H](CC(C)C)C(=O)N[C@H](CC(C)C)C(=O)N[C@H](CCCNC(=N)N)C(=O)N[C@H](CCCCN)C(=O)N[C@H](CCCNC(=N)N)C(=O)N[C@H](CC(C)C)C(=O)N[C@H](CCCCN)C(=O)N[C@H](CCCNC(=N)N)C(=O)N[C@H](CC(C)C)C(=O)N[C@H](Cc1c[nH]cn1)C(=O)N[C@H](CO)C(=O)N[C@H](C)C(=O)N[C@H](CC(C)C)C(=O)N[C@H](CCCNC(=N)N)C(=O)N[C@@H](C(=O)N[C@H](CCCNC(=N)N)C(=O)N[C@H](CC(C)C)C(=O)O)C(C)C [RI TPA-HA2-ApoE(133-150), TPA-mPEG-hwgghifhaiahflg-mPEG-K-mPEG-rllrkrlkrlhsalrvrl] ([Mpa][AEEA][dH][dW]GG[dH][dI][dF][dH][dA][dI][dA][dH][dF][dL]G[AEEA]K[AEEA][dR][dL][dL][dR][dK][dR][dL][dK][dR][dL][dH][dS][dA][dL][dR][dV][dR][dL]-OH)	96 min		proteolytic stability compared to the parent L-peptides ([1]; 50% human serum, 37° C.): significantly higher proteolytic stability
CC[C@H](C)[C@H](NC(=O)[C@H](C)NC(=O)[C@H](Cc1c[nH]cn1)NC(=O)[C@H](Cc1ccccc1)NC(=O)[C@H](CC(C)C)NC(=O)CNC(C)=O)C(=O)N[C@@H](C)C(=O)N[C@@H](Cc1c[nH]cn1)C(=O)N[C@@H](Cc1ccccc1)C(=O)N[C@H](C(=O)N[C@@H](Cc1c[nH]cn1)C(=O)NCC(=O)NCC(=O)N[C@@H](Cc1c[nH]c2ccccc12)C(=O)N[C@@H](Cc1c[nH]cn1)C(=O)NCCOCCOCC(=O)N[C@@H](CCCCNC(=O)COCCOCCNC(=O)CCS)C(=O)NCCOCCOCC(=O)N[C@@H](CC(C)C)C(=O)N[C@@H](CCCNC(=N)N)C(=O)N[C@@H](CCCCN)C(=O)N[C@@H](CC(C)C)C(=O)N[C@@H](CCCNC(=N)N)C(=O)N[C@@H](CCCCN)C(=O)N[C@@H](CCCNC(=N)N)C(=O)N[C@@H](CC(C)C)C(=O)N[C@@H](CC(C)C)C(=O)N[C@@H](CCCNC(=N)N)C(=O)O)[C@@H](C)CC [Br-HA2-(TPA)-ApoE(141-150), Ac-GLFHAIAHFIHGGWH-mPEG-K(mPEG-TPA)-mPEG-LRKLRKRLLR] (Ac-GLFHAIAHFIHGGWH[AEEA]K([AEEA-Mpa])[AEEA]LRKLRKRLLR-OH)	36 min		
CC[C@H](C)[C@H](NC(=O)[C@H](C)NC(=O)[C@H](Cc1c[nH]cn1)NC(=O)[C@H](Cc1ccccc1)NC(=O)[C@H](CC(C)C)NC(=O)CNC(C)=O)C(=O)N[C@@H](C)C(=O)N[C@@H](Cc1c[nH]cn1)C(=O)N[C@@H](Cc1ccccc1)C(=O)N[C@H](C(=O)N[C@@H](Cc1c[nH]cn1)C(=O)NCC(=O)NCC(=O)N[C@@H](Cc1c[nH]c2ccccc12)C(=O)N[C@@H](Cc1c[nH]cn1)C(=O)NCCOCCOCC(=O)N[C@@H](CCCCNC(=O)COCCOCCNC(=O)CCS)C(=O)NCCOCCOCC(=O)N[C@@H](CC(C)C)C(=O)N[C@@H](CCCNC(=N)N)C(=O)N[C@H](C(=O)N[C@@H](CCCNC(=N)N)C(=O)N[C@@H](CC(C)C)C(=O)N[C@@H](C)C(=O)N[C@@H](CO)C(=O)N[C@@H](Cc1c[nH]cn1)C(=O)N[C@@H](CC(C)C)C(=O)N[C@@H](CCCNC(=N)N)C(=O)N[C@@H](CCCCN)C(=O)N[C@@H](CC(C)C)C(=O)N[C@@H](CCCNC(=N)N)C(=O)N[C@@H](CCCCN)C(=O)N[C@@H](CCCNC(=N)N)C(=O)N[C@@H](CC(C)C)C(=O)N[C@@H](CC(C)C)C(=O)N[C@@H](CCCNC(=N)N)C(=O)O)C(C)C)[C@@H](C)CC [Br-HA2-(TPA)-ApoE(133-150), Ac-GLFHAIAHFIHGGWH-mPEG-K(mPEG-TPA)-mPEG-LRVRLASHLRKLRKRLLR] (Ac-GLFHAIAHFIHGGWH[AEEA]K([AEEA-Mpa])[AEEA]LRVRLASHLRKLRKRLLR-OH)	60 min		
Ac-WEAALAEALAEALAEHLAEALAEALEALAA-X-C-PMO (Ac-WEAALAEALAEALAEHLAEALAEALEALAA[Ahx]C-{PMO}; reading uncertain; also: printed as Ac-WEAALAEALAEALAEHLAEALAEALEALAA-X-C-PMO) [GALA-PMO]		no significant increase	
Myr-LRKLRKRLLR-X-C-PMO [Myr-ApoE(141-150)-PMO]			exon-7 inclusion activity (full length SMN2/HPRT1, normalised to untreated control set to 1) (SMN2; concentration not given, compared to acetylated counterpart): 1.91±0.03
Ac-VQRKRQKLMP-X-LRKLRKRLLR-X-C-PMO [NLS-ApoE(141-150)-PMO]		significant increase in the activity	
Ac-WEAALAEALAEALAEHLAEALAEALEALAA-X-LRKLRKRLLR-X-C-PMO [GALA-ApoE(141-150)-PMO]		significant increase in the activity	level of exon-7 inclusion activity (full length SMN2/HPRT1, normalised to untreated control set to 1) (SMN2; 0.5 μM): 1.41±0.04; level of exon-7 inclusion activity (full length SMN2/HPRT1, normalised to untreated control set to 1) (SMN2; 1 μM): 2.14±0.14
Ac-HHHH-X-LRKLRKRLLR-X-C-PMO [H4-ApoE(141-150)-PMO]			level of exon-7 inclusion activity (full length SMN2/HPRT1, normalised to untreated control set to 1) (SMN2; 0.5 μM): 1.81±0.02; level of exon-7 inclusion activity (full length SMN2/HPRT1, normalised to untreated control set to 1) (SMN2; 1 μM): 2.0±0.05
